The values that follow come from ChEMBL document CHEMBL4190392, “Enhancing Action of Positive Allosteric Modulators through the Design of Dimeric Compounds” (J Med Chem, 2018).

This assay has as its target Glutamate receptor 2 (Homo sapiens, UniProt P42262). Kind of assay: Positive allosteric modulation of GluA2Q flop isoform (unknown origin) expressed in HEK293 cells assessed as increase in L-glutamate induced calcium flux after 1 hr by fluo-4AM dye-based fluorescence assay. It counts as cell-based.

Chain of Glutamate receptor 2 (P42262 whole entry, canonical isoform): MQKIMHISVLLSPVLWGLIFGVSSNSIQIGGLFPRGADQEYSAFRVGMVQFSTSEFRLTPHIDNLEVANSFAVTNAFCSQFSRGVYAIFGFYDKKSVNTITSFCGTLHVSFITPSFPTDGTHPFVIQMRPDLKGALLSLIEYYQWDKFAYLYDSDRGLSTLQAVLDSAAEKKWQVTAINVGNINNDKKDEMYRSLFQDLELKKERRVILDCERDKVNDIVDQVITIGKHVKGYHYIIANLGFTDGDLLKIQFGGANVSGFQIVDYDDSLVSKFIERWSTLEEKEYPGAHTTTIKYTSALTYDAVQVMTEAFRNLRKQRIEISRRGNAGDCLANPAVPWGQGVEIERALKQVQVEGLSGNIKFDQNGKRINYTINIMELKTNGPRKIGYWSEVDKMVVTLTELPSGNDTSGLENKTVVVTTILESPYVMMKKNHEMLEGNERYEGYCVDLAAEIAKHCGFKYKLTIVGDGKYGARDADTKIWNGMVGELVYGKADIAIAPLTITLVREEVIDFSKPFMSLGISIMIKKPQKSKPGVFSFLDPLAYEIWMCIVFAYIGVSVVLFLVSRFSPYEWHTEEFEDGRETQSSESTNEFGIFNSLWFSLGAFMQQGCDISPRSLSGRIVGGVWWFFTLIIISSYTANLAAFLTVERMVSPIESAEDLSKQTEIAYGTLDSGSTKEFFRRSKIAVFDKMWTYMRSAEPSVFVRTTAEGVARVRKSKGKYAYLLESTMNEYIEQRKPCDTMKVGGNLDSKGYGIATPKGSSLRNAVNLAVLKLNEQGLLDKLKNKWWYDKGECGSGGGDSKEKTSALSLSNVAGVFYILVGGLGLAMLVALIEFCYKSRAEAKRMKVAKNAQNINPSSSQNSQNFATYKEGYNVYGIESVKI

Regarding `O=S1(=O)NCN(C2CC2)c2cc(CCc3ccc4c(c3)N(C3CC3)CNS4(=O)=O)ccc21`, for the setting “read-out: EC50”, the EC50 was determined as 0.0014 µM. As for `O=S1(=O)NCN(C2CC2)c2ccccc21`, the EC50 (read-out: EC50) was determined as 9.06 µM. As for `Cc1ccc2c(c1)N(C1CC1)CNS2(=O)=O`, the EC50 is, setting by setting: (read-out: EC50) 48.2 µM; (read-out: pEC50 (converted)) 49 µM. As for `CN1CNS(=O)(=O)c2ccccc21`, where the note is “read-out: EC50”, the EC50 was 176 µM. Take `Cc1ccc2c(c1)N(C)CNS2(=O)=O`: the EC50 (read-out: EC50) was 403 µM.

Turning to `CN1CNS(=O)(=O)c2ccc(CCc3ccc4c(c3)N(C)CNS4(=O)=O)cc21`, the EC50 by setting is: (read-out: EC50) 0.0134 µM; (read-out: pEC50 (converted)) 0.0145 µM.
